The test system of one assay is NF-KB. In words: EMSA of NF-KB DNA binding activity in total cell extracts of stimulated 7OZ/3 cells. It is filed as cell-based, mouse. To be noted: PMA treated 7OZ/3 cells, 100 μM PDTC. On the procedure: 7OZ/3 cells (ATCC No. TIB 158) were cultivated in RPMI-1640 medium (Gibco BRL), supplemented by 10% FCS (Gibco BRL) and 50 μM 2-mercaptoethanol. 2 ml aliquots with approx. 2-3×10^6 of suspended cells was treated with 50 ng/ml PMA (Sigma) for various periods. The treatment was interrupted by immediate centrifugation (5 s in an Eppendorf Microfuge) and cooling on ice. The cell pellets were lysed with 60 μl of a high-salt extraction buffer, containing the non-ionic detergent nonidet P-40 (Baeuerle and Baltimore, 1988b). The supernatant of a 15 minute centrifugation at 13.000 rpm in an Eppendorf Microfuge was analysed by Western blotting and EMSA (electrophoretic mobility shift assay). For SDS-PAGE and Western blotting 30 μl aliquots of the extracts were mixed with 15 μl SDS sample buffer (Laemmli, 1970), boiled and subjected to a SDS-PAGE on 12.5% polyacrylamide minigels (Biorad). The proteins were transferred by using a so-called semi-dry blotting device (Biorad; 1 h at 15V/2.5 mA/cm2) from the gels onto IMMOBILON-P-filter (0.45 μm; Millipore). The efficiency of the blot was checked by protein staining of the filters with Ponceau S (Serva). The filters were blocked overnight in a Tris-buffered saline solution, containing 0,1% (v/v) TWEEN-20 (TBST), 5% low-fat milk powder (Nestle) and 1% BSA. The filter was then incubated for one hour at ambient temperature with anti IkB-α IgG in a dialysed eluate of the IkB-α affinity column and diluted by 1:100 in the blocking buffer. After washing for 30 minutes in TBST the filter was incubated in a 1:4000 solution of goat-anti-rabbit IgG/horseradish-peroxidase conjugate (Biorad) in blocking buffer. After washing for 30 minutes in TBST the filter was treated with ECL detecting reagent (Amersham) and exposed (Kodak XR film, less than 1 minute). For EMSA 2 μl aliquots of the extracts were added to a binding mixture, resulting in a final concentration of […], […], pH 7.9, […] dithiothreitol, […] phenylmethylsulfonylfluoride (PMSF), 0.2% NONIDET P-40, 5% FICOLL, 20 μg BSA, 3 μg Poly (dl-dC) and 10.000 cpm (Cerenkov counting method) of a ^32 P marked double-stranded KB-oligonucleotide probe (Gibco BRL). The specificity of the protein DNA complex was confirmed by competition experiments and supershifting with a polyclonal antibody, recognising the C-terminal 100 amino acids of Rel-A (p65). After 20 minutes of incubation on ice the samples were subjected to electrophoresis on native 4% polyacrylamide gels, run in 0.5× TBE. The dried gels were exposed (Kodak XR film, -70° C., overnight).
Cell cultures, extract production, SDS-PAGE and Western blotting were carried out according to example 1. The cells were […] in 25 μm TPCK or TLCK (both from Sigma), and pre-treated in dimethylsulfoxide (DMSO). The control cultures received an equivalent amount of DMSO.
The results of the experiments are shown in FIG. 4: A: Effect of TPCK on the induction by PMA. The cells were treated without (left panel) or in presence of TPCK with PMA for the stipulated periods. The cell extracts were tested for the DNA binding activity of NF-KB using EMSA (top panel) and for the IkB-α protein quantity using Western blotting (bottom panel). The position of the NF-KB-DNA complex in a section of a fluorogram of a native gel is shown by a filled arrowhead. […] B: Effect of TPCK on the activation of NF-KB by IL-1β (I), LPS (L) and PMA (P) in 7OZ/3 cells; in control cells (Co). The cells were treated with TPCK for 10 minutes before stimulation (lanes 6-8) or for an additional 10 minutes after stimulation (lanes 10-12; 30 minutes with IL-1β and PMA or 60 minutes with LPS). The total cell extracts of control cells (lanes 1-4) and cells treated with TPCK (lanes 5-12) were tested for the DNA binding activity of NF-KB using EMSA; a section of a fluorogram of a native gel is shown. […] C: Effect of TLCK on the activation of NF-KB by PMA. […]
(In general: A gel shift assay detects complexes by their altered migration in electrophoresis.)

The subject of the next assay is PKC. To be noted: cited from earlier work.
For the next assay, the system named is IkB-α. Nature of the assay: Western blotting of IkB-α in extracts of 7OZ/3 cells. It is filed as cell-based, mouse. To be noted: PMA treated 7OZ/3 cells, 100 μM PDTC. On the technique in general: In western blotting, separated proteins are transferred to a membrane and probed.

Structures are written as SMILES.

Take `S=C(S)N1CCCC1` [PDTC, pyrrolidindithiocarbamate]: the “activation of NF-KB binding activities” value in the assay with NF-KB is listed as “effectively suppressed”. For the same compound, the “interference with PMA induced membrane association and kinase activity of PKC” value in the assay with PKC is recorded as “does not interfere”. The “degradation of IkB-α protein (Western blot)” value in the assay on IkB-α is recorded as “no significant degradation”.

Values taken from patent US6090542A, “Process for inhibiting the transcription of genes” (Boehringer Ingelheim International GmbH, priority 1993, dated 2000).
